The target of one assay is RET kinase Wild Type (Homo sapiens, UniProt P07949). Put plainly: RET Enzyme Assay (HTRF KinEASE-TK), Wild Type. The format is biochemical.
For another assay, the target named is RET kinase M918T (Homo sapiens, UniProt P07949, M918T). Put plainly: RET Enzyme Assay (HTRF KinEASE-TK), M918T. The class given is biochemical.
The target of another assay is RET kinase V804M (Homo sapiens, UniProt P07949, V804M). Description: RET Enzyme Assay (HTRF KinEASE-TK), V804M. The class given is biochemical.
The next assay has as its target RET kinase G810S (Homo sapiens, UniProt P07949, G810S). Put plainly: RET Enzyme Assay (HTRF KinEASE-TK), G810S. The format is biochemical. A general note: In TR-FRET formats the signal depends on donor and acceptor labels being close together.
In the next assay the target is RET kinase G810R (Homo sapiens, UniProt P07949, G810R). Put plainly: RET Enzyme Assay (HTRF KinEASE-TK), G810R. The format is biochemical.
Assay [1] deals with T1, HEK-293 cells expressing a Kif5b-RET fusion protein (Homo sapiens, UniProt P07949).
T1 construct: expressed in transfected cells; host or cells: HEK-293; the other entry of the earlier key: KIF5B (P33176, Kinesin-1 heavy chain)
T1 sequence (P07949 713-1063 limits assumed): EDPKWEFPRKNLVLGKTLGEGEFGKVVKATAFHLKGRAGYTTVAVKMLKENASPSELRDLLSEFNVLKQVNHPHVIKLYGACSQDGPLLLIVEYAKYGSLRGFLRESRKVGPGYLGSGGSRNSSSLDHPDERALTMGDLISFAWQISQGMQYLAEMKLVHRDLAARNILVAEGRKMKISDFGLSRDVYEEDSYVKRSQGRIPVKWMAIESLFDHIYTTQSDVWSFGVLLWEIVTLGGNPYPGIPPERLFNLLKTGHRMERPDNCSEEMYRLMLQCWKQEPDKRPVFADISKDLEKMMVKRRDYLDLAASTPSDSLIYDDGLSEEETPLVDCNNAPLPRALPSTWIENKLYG
Description: RET Cell Assay (phospho-RET Tyr1062). As to conditions: 1 hour with compound, phospho-RET(Tyr1062) normalized to GAPDH, read-out: KIF5B-RET pTYR1062 Cell IC50. The format is cell-based. How it is done: The cellular potency of compounds inhibiting RET kinase were determined in HEK-293 cells expressing a Kif5b-RET fusion protein. Briefly, HEK-293 cells expressing a Kif5b-RET fusion protein were plated at 50K cells/well in 96 well poly-D-Lysine coated plates the day prior to the assay. The cells were incubated for 1 hour with test compound in DMEM (Dulbecco's Modified Eagle Medium) at a final DMSO concentration of 0.5%. […] After 1 hour the media was removed, the cells were fixed with 3.8% formaldehyde for 20 min, washed with PBS, and permeabilized for 10 min with 100% methanol. […] All antibodies were diluted in LI-COR Block containing 0.05% Tween. The plates were washed with PBS-0.05% Tween20, 100 μL PBS is added to each well, and the plates were read on a LI-COR Aerius fluorescent plate reader. The phospho-RET signal was normalized to the GAPDH signal. 100 POC (percent of control) was determined using no test compounds and 0 POC was determined using 1 μM of a control inhibitor. The POC values were fit to a 4 parameter logistic curve. The IC50 value is the point where the curve crosses 50 POC.

Structures can show the parent of a compound that is named as a salt.

RET kinase Wild Type, sequence (P07949 29-1114): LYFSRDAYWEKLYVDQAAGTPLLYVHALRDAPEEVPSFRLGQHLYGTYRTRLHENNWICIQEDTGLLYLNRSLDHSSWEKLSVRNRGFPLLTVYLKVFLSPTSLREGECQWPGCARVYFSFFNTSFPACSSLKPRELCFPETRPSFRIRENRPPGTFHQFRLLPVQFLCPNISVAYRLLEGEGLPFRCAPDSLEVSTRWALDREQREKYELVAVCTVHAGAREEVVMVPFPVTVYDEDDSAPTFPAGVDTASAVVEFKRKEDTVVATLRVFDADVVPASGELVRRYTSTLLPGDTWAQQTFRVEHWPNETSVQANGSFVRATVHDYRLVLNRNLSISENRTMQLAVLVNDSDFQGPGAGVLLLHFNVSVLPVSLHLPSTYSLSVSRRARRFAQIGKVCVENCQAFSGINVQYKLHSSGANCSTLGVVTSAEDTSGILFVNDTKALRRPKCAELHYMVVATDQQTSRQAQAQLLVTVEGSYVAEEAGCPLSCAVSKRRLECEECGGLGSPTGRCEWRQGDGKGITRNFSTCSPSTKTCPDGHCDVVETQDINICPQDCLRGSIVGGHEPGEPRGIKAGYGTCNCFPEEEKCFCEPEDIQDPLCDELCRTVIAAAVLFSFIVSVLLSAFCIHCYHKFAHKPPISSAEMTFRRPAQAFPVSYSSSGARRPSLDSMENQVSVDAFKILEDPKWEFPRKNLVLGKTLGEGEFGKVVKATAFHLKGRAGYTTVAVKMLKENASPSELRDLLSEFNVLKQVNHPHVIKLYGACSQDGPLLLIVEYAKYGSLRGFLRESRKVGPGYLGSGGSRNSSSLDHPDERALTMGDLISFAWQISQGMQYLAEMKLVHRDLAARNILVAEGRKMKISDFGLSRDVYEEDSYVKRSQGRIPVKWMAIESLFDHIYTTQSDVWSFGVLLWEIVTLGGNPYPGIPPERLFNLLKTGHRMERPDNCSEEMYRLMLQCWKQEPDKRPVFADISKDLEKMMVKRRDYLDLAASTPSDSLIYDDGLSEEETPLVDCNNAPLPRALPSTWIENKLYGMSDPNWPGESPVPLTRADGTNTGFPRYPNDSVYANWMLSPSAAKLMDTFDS
RET kinase V804M, sequence (P07949 29-1114 V804M): as the sequence (P07949 29-1114) above, with V776M counted along it
RET kinase M918T, sequence (P07949 29-1114 M918T): as the sequence (P07949 29-1114) above, with M890T counted along it
RET kinase G810R, sequence (P07949 29-1114 G810R): as the sequence (P07949 29-1114) above, with G782R counted along it
RET kinase G810S, sequence (P07949 29-1114 G810S): as the sequence (P07949 29-1114) above, with G782S counted along it

At RET kinase Wild Type, `CC(C)n1nc(-c2c[nH]nn2)c2c(N)ncnc21` [Example 35, 1-isopropyl-3-(1H-1,2,3-triazol-4-yl)-1H-pyrazolo[3,4-d]pyrimidin-4-amine] had an IC50 of 0.0072 µM.

On to `CC(C)n1nc(-c2noc(C3CC3)c2-c2cnn(C)c2)c2c(N)ncnc21` [Example 3, 3-(5-cyclopropyl-4-(1-methyl-1H-pyrazol-4-yl)isoxazol-3-yl)-1-isopropyl-1H-pyrazolo[3,4-d]pyrimidin-4-amine], for which the IC50 came out at 0.0071 µM at RET kinase Wild Type; 0.0122 µM against RET kinase M918T; 0.0525 µM against RET kinase V804M; 0.0466 µM at RET kinase G810S; 0.0125 µM on RET kinase G810R.

Regarding `CC(C)n1nc(-c2cc(C(F)(F)F)nn2C2CCCCO2)c2c(N)ncnc21` (stereo not drawn) [Example 25, 1-isopropyl-3-(1-(tetrahydro-2H-pyran-2-yl)-3-(trifluoromethyl)-1H-pyrazol-5-yl)-1H-pyrazolo[3,4-d]pyrimidin-4-amine], the IC50 on RET kinase Wild Type was found to be 0.0084 µM; against RET kinase M918T, 0.0163 µM; against RET kinase G810S, 0.0798 µM; at RET kinase G810R it was 0.0486 µM.

`CC(C)n1nc(-c2noc(C3CC3)c2C2=CCOCC2)c2c(N)ncnc21` [Example 4, 3-(5-cyclopropyl-4-(3,6-dihydro-2H-pyran-4-yl)isoxazol-3-yl)-1-isopropyl-1H-pyrazolo[3,4-d]pyrimidin-4-amine]: the IC50 was 0.0052 µM against RET kinase Wild Type; 0.0076 µM against RET kinase M918T; 0.0288 µM against RET kinase V804M; 0.0373 µM against RET kinase G810S; 0.0135 µM at RET kinase G810R.

Regarding `Cc1cnn(C2CCCCO2)c1-c1nn(C(C)C)c2ncnc(N)c12` (stereo not drawn) [Example 28, 1-isopropyl-3-(4-methyl-1-(tetrahydro-2H-pyran-2-yl)-1H-pyrazol-5-yl)-1H-pyrazolo[3,4-d]pyrimidin-4-amine], the IC50 at RET kinase Wild Type amounted to 0.379 µM; against RET kinase V804M, 0.276 µM.

As for `CC(C)n1nc(-c2nccn2C)c2c(N)ncnc21` [Example 33, 1-isopropyl-3-(1-methyl-1H-imidazol-2-yl)-1H-pyrazolo[3,4-d]pyrimidin-4-amine], on RET kinase Wild Type, the IC50 turned out to be 0.0659 µM.

In the case of `CC(C)n1nc(-c2noc(C3CC3)c2C2=COCCC2)c2c(N)ncnc21` [Example 10, 3-(5-cyclopropyl-4-(3,4-dihydro-2H-pyran-5-yl)isoxazol-3-yl)-1-isopropyl-1H-pyrazolo[3,4-d]pyrimidin-4-amine], the IC50 in assay [1] was determined as 0.199 µM; on RET kinase Wild Type it was 0.0015 µM; against RET kinase M918T, 0.0022 µM; against RET kinase V804M, 0.0138 µM; at RET kinase G810S, 0.0136 µM; against RET kinase G810R, 0.0041 µM.

Turning to `CC(C)n1nc(-c2noc(C3CC3)c2C2=CCC(=O)CC2)c2c(N)ncnc21` [Example 5, 4-(3-(4-amino-1-isopropyl-1H-pyrazolo[3,4-d]pyrimidin-3-yl)-5-cyclopropylisoxazol-4-yl)cyclohex-3-en-1-one], the IC50 in assay [1] amounted to 0.105 µM; against RET kinase Wild Type, 0.0027 µM; on RET kinase M918T it was 0.0032 µM; at RET kinase V804M it was 0.0205 µM; at RET kinase G810S, 0.0117 µM; against RET kinase G810R, 0.0071 µM.

Consider `CC(=O)n1nc(-c2nn(C(C)C)c3ncnc(N)c23)cc1C` [Example 32, 1-(3-(4-amino-1-isopropyl-1H-pyrazolo[3,4-d]pyrimidin-3-yl)-5-methyl-1H-pyrazol-1-yl)ethan-1-one], for which the IC50 on RET kinase Wild Type amounted to 0.0447 µM.

As for `CC(C)n1nc(-c2cc(C3CC3)nn2C2CCCCC2)c2c(N)ncnc21` [Example 26, 3-(1-cyclohexyl-3-cyclopropyl-1H-pyrazol-5-yl)-1-isopropyl-1H-pyrazolo[3,4-d]pyrimidin-4-amine], the IC50 on RET kinase Wild Type turned out to be 0.008 µM; against RET kinase M918T, 0.0142 µM; on RET kinase G810S it was 0.0874 µM; on RET kinase G810R it was 0.0313 µM.

With `CC(C)n1nc(-c2noc(C3CC3)c2-c2cccnc2)c2c(N)ncnc21` [Example 7, 3-(5-cyclopropyl-4-(pyridin-3-yl)isoxazol-3-yl)-1-isopropyl-1H-pyrazolo[3,4-d]pyrimidin-4-amine], the IC50 against RET kinase Wild Type worked out at 0.0071 µM; at RET kinase M918T, 0.0087 µM; against RET kinase V804M it was 0.0522 µM; at RET kinase G810S, 0.0389 µM; against RET kinase G810R it was 0.0084 µM.

As to `CC(C)c1cc(-c2nn(C(C)C)c3ncnc(N)c23)n(C2CCCCO2)n1` (stereo not drawn) [Example 20, 1-isopropyl-3-(3-isopropyl-1-(tetrahydro-2H-pyran-2-yl)-1H-pyrazol-5-yl)-1H-pyrazolo[3,4-d]pyrimidin-4-amine], the IC50 at RET kinase Wild Type was determined as 0.0211 µM; on RET kinase M918T it was 0.0465 µM; against RET kinase G810S, 0.226 µM; on RET kinase G810R, 0.0705 µM.

As for `CC(C)n1nc(-c2noc(C3CC3)c2I)c2c(N)ncnc21` [Example 12, 3-(5-cyclopropyl-4-iodoisoxazol-3-yl)-1-isopropyl-1H-pyrazolo[3,4-d]pyrimidin-4-amine], the IC50 was 0.0053 µM at RET kinase Wild Type; 0.0041 µM at RET kinase M918T; 0.0151 µM against RET kinase V804M; 0.0243 µM at RET kinase G810S; 0.0114 µM against RET kinase G810R.

For the compound `CC(C)n1nc(-c2noc(C3CC3)c2-c2ccccc2)c2c(N)ncnc21` [Example 6, 3-(5-cyclopropyl-4-phenylisoxazol-3-yl)-1-isopropyl-1H-pyrazolo[3,4-d]pyrimidin-4-amine], the IC50 amounted to 0.488 µM in assay [1]; 0.0047 µM at RET kinase Wild Type; 0.0045 µM against RET kinase M918T; 0.0239 µM against RET kinase V804M; 0.0262 µM against RET kinase G810S; 0.01 µM against RET kinase G810R.

Turning to `CC(C)n1nc(-c2cc(-c3ccccc3)nn2C2CCCCO2)c2c(N)ncnc21` (stereo not drawn) [Example 24, 1-isopropyl-3-(3-phenyl-1-(tetrahydro-2H-pyran-2-yl)-1H-pyrazol-5-yl)-1H-pyrazolo[3,4-d]pyrimidin-4-amine], the IC50 came out at 0.0087 µM against RET kinase Wild Type, 0.0098 µM against RET kinase M918T, 0.0543 µM against RET kinase G810S and 0.055 µM on RET kinase G810R.

Turning to `CC(C)n1nc(-c2noc(C3CC3)c2-c2ncccn2)c2c(N)ncnc21` [Example 11, 3-(5-cyclopropyl-4-(pyrimidin-2-yl)isoxazol-3-yl)-1-isopropyl-1H-pyrazolo[3,4-d]pyrimidin-4-amine], the IC50 in assay [1] worked out at 0.086 µM; on RET kinase Wild Type, 0.0015 µM; on RET kinase M918T, 0.0012 µM; on RET kinase V804M, 0.0044 µM; at RET kinase G810S, 0.0049 µM; on RET kinase G810R, 0.0035 µM.

At RET kinase Wild Type, `C=Cc1cc(-c2nn(C(C)C)c3ncnc(N)c23)[nH]n1` [Example 30, 1-isopropyl-3-(3-vinyl-1H-pyrazol-5-yl)-1H-pyrazolo[3,4-d]pyrimidin-4-amine hydrochloride] showed a 50% inhibitory concentration (IC50) of 0.0659 µM.

Regarding `CC(C)n1nc(-c2cnn(C3CC3)c2)c2c(N)ncnc21` [Example 29, 3-(1-cyclopropyl-1H-pyrazol-4-yl)-1-isopropyl-1H-pyrazolo[3,4-d]pyrimidin-4-amine], the IC50 at RET kinase Wild Type worked out at 0.0617 µM.

Take `CC(C)n1nc(-n2cc(C3CC3)cn2)c2c(N)ncnc21` [Example 34, 3-(4-cyclopropyl-1H-pyrazol-1-yl)-1-isopropyl-1H-pyrazolo[3,4-d]pyrimidin-4-amine]: at RET kinase Wild Type, the IC50 stood at 0.0373 µM.

Turning to `CC(C)n1nc(-c2cc(C(F)(F)F)[nH]n2)c2c(N)ncnc21` [Example 31, 1-isopropyl-3-(5-(trifluoromethyl)-1H-pyrazol-3-yl)-1H-pyrazolo[3,4-d]pyrimidin-4-amine dihydrochloride], at RET kinase Wild Type, the IC50 was determined as 0.156 µM.

Turning to `CC(C)n1nc(-c2noc(C3CC3)c2-c2ccncc2)c2c(N)ncnc21` [Example 8, 3-(5-cyclopropyl-4-(pyridin-4-yl)isoxazol-3-yl)-1-isopropyl-1H-pyrazolo[3,4-d]pyrimidin-4-amine], the half-maximal inhibitory concentration (IC50) was 0.0029 µM against RET kinase Wild Type; 0.0039 µM against RET kinase M918T; 0.029 µM against RET kinase V804M; 0.0206 µM against RET kinase G810S; 0.0039 µM against RET kinase G810R.

For the compound `CC(C)n1nc(C2CC2)cc1-c1nn(C(C)C)c2ncnc(N)c12` [Example 27, 3-(3-cyclopropyl-1-isopropyl-1H-pyrazol-5-yl)-1-isopropyl-1H-pyrazolo[3,4-d]pyrimidin-4-amine], the concentration for half-maximal inhibition (IC50) at RET kinase Wild Type was 0.0116 µM; against RET kinase M918T, 0.0223 µM; against RET kinase G810S, 0.406 µM; against RET kinase G810R it was 0.0429 µM.

By IC50 is commonly meant the concentration at which inhibition is half-maximal.

The record behind these values is patent US11524963B2, “Substituted pyrazolo[3,4-d]pyrimidines as RET kinase inhibitors” (Array Biopharma Inc., priority 2018, dated 2022).
